The experiment concerns BDF1 mice, P388 leukemia ip, median survival T/C. The experiment is described as follows: NCI In Vivo Anticancer Drug Screen. Data for tumor model P388 Leukemia (intraperitoneal) in B6D2F1 (BDF1) mice. The following applies: endpoint: median survival time, higher = longer survival. Summed up: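 In tumour-bearing mice, survival after compound treatment is set against the vehicle group and given as a quotient.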

[1] abbreviates: dose: 6.25 mg/kg/injection, schedule: Q01DX009 (ip), vehicle: water.
Setting [2] is: dose: 25.0 mg/kg/injection, schedule: Q01DX009 (ip), vehicle: saline with Tween-80.
The mark [3] stands for this setting: dose: 50.0 mg/kg/injection, schedule: Q01DX009 (ip), vehicle: saline with Tween-80.
Where [4] appears, read: dose: 100.0 mg/kg/injection, schedule: Q01DX009 (ip), vehicle: saline with Tween-80.
The mark [5] stands for this setting: dose: 200.0 mg/kg/injection, schedule: Q01DX009 (ip), vehicle: saline with Tween-80.
Setting [6] is: dose: 200.0 mg/kg/injection, schedule: Q04DX003 (ip), vehicle: Klucel (hydroxypropylcellulose) (HPC).
The mark [7] stands for this setting: dose: 12.5 mg/kg/injection, schedule: Q01DX009 (ip), vehicle: Klucel (hydroxypropylcellulose) (HPC).
The mark [8] stands for this setting: dose: 50.0 mg/kg/injection, schedule: Q01DX009 (ip), vehicle: Klucel (hydroxypropylcellulose) (HPC).
Where [9] appears, read: dose: 100.0 mg/kg/injection, schedule: Q04DX003 (ip), vehicle: Klucel (hydroxypropylcellulose) (HPC).
Where [10] appears, read: dose: 6.25 mg/kg/injection, schedule: Q01DX009 (ip), vehicle: Klucel (hydroxypropylcellulose) (HPC).

The results in this text go back to PubChem BioAssay AID328 (DTP/NCI, 2004).

SMILES strings stand for the structures. Values joined by “and” are separate entries in the source; they are usually repeats but may differ in a detail not shown here. Equal entries are not always repeated. Toxic doses and inconclusive results are not listed.

Take `C1CCN[N-]C1.C1CCN[N-]C1.[Cl][Pt+2]([Cl])([Cl])[Cl]`: the T/C (dose: 0.78 mg/kg/injection, schedule: Q01DX009 (ip), vehicle: water) was 103 % of control; the T/C (dose: 1.56 mg/kg/injection, schedule: Q01DX009 (ip), vehicle: water) was 112 % of control; the T/C (dose: 3.12 mg/kg/injection, schedule: Q01DX009 (ip), vehicle: water) was 120 % of control; the T/C under setting [1] was 106 % of control and 111 % of control; the T/C (dose: 25.0 mg/kg/injection, schedule: Q04DX003 (ip), vehicle: water) is 104 % of control; the T/C (dose: 50.0 mg/kg/injection, schedule: Q04DX003 (ip), vehicle: water) was 95 % of control.
Regarding `CC1(C)OC1CC1=CC(=O)C=CC1=O` (configuration not stated), the T/C reads like this: under setting [2], 108 % of control; under setting [3], 103 % of control; under setting [4], 100 % of control; under setting [5], 117 % of control.
For `CN(C)c1ccc(/C=C\c2cc(/C=C/c3ccc(N(C)C)cc3)nc3ccccc23)cc1`, the T/C under setting [3] was 103 % of control, the T/C under setting [4] is 116 % of control and the T/C under setting [5] was 120 % of control.
As to `CC(CNC(=O)CCOS(C)(=O)=O)NC(=O)CCOS(C)(=O)=O` (configuration not stated), the T/C by setting is: (dose: 264.0 mg/kg/injection, schedule: Q04DX003 (ip), vehicle: saline with Tween-80) 213 % of control; (dose: 267.0 mg/kg/injection, schedule: Q04DX003 (ip), vehicle: saline with Tween-80) 183 % of control; (dose: 400.0 mg/kg/injection, schedule: Q04DX003 (ip), vehicle: saline with Tween-80) 208 % of control and 209 % of control; (dose: 500.0 mg/kg/injection, schedule: Q04DX003 (ip), vehicle: saline with Tween-80) 212 % of control; (dose: 600.0 mg/kg/injection, schedule: Q04DX003 (ip), vehicle: saline with Tween-80) 109 % of control.
`COc1cc2c[n+](C)c3c4cc5c(cc4ccc3c2cc1OC)OCO5`: the T/C was 150 % of control (dose: 1.0 mg/kg/injection, schedule: Q01DX009 (ip), vehicle: water); 161 % of control (dose: 4.0 mg/kg/injection, schedule: Q01DX009 (ip), vehicle: saline); 185 % of control (dose: 5.0 mg/kg/injection, schedule: Q01DX009 (ip), vehicle: saline); 182 % of control under setting [1]; 176 % of control (dose: 8.0 mg/kg/injection, schedule: Q01DX009 (ip), vehicle: saline); 154 % of control (dose: 10.0 mg/kg/injection, schedule: Q01DX005 (ip), vehicle: saline). Moreover, the T/C is 200 % of control (dose: 10.0 mg/kg/injection, schedule: Q01DX009 (ip), vehicle: saline); 185 % of control (dose: 10.0 mg/kg/injection, schedule: Q04DX003 (ip), vehicle: saline); 177 % of control (dose: 12.0 mg/kg/injection, schedule: Q01DX009 (ip), vehicle: water); 204 % of control (dose: 12.5 mg/kg/injection, schedule: Q01DX009 (ip), vehicle: water); 158 % of control (dose: 20.0 mg/kg/injection, schedule: Q01DX005 (ip), vehicle: saline); 190 % of control (dose: 20.0 mg/kg/injection, schedule: Q04DX003 (ip), vehicle: saline). Also, the T/C was 100 % of control (dose: 25.0 mg/kg/injection, schedule: Q01DX009 (ip), vehicle: water); 193 % of control (dose: 28.8 mg/kg/injection, schedule: Q04DX003 (ip), vehicle: Klucel (hydroxypropylcellulose) (HPC)); 183 % of control (dose: 40.0 mg/kg/injection, schedule: Q01DX005 (ip), vehicle: saline); 196 % of control (dose: 43.2 mg/kg/injection, schedule: Q04DX003 (ip), vehicle: Klucel (hydroxypropylcellulose) (HPC)); 200 % of control (dose: 48.0 mg/kg/injection, schedule: Q04DX003 (ip), vehicle: Klucel (hydroxypropylcellulose) (HPC)); 225 % of control and 153 % of control (dose: 50.0 mg/kg/injection, schedule: Q04DX002 (ip), vehicle: Klucel (hydroxypropylcellulose) (HPC)). Also, the T/C was 172 % of control (dose: 55.0 mg/kg/injection, schedule: Q04DX003 (ip), vehicle: other); 188 % of control (dose: 72.0 mg/kg/injection, schedule: Q04DX003 (ip), vehicle: Klucel (hydroxypropylcellulose) (HPC)); 103 % of control (dose: 80.0 mg/kg/injection, schedule: Q01DX005 (ip), vehicle: saline); 186 % of control (dose: 80.0 mg/kg/injection, schedule: Q01DX009 (ip), vehicle: saline); 200 % of control (dose: 80.0 mg/kg/injection, schedule: Q04DX003 (ip), vehicle: Klucel (hydroxypropylcellulose) (HPC)); 260 % of control (dose: 80.0 mg/kg/injection, schedule: Q04DX003 (ip), vehicle: saline). Besides, the T/C is 162 % of control (dose: 92.0 mg/kg/injection, schedule: Q04DX003 (ip), vehicle: other); 95 % of control (dose: 120.0 mg/kg/injection, schedule: Q01DX009 (ip), vehicle: saline); 170 % of control (dose: 133.3 mg/kg/injection, schedule: Q04DX003 (ip), vehicle: Klucel (hydroxypropylcellulose) (HPC)); 160 % of control under setting [6].
As to `CCC(C)n1ncc2c(N(C)C)ncnc21` (configuration not stated), the T/C reads like this: under setting [7], 100 % of control; under setting [8], 92 % of control and 95 % of control; under setting [9], 95 % of control; under setting [6], 120 % of control.
Consider `CCc1cc2c(cc1C(=O)CBr)C(C)(C)CCC2(C)C`, for which the T/C runs as follows: (dose: 3.12 mg/kg/injection, schedule: Q01DX009 (ip), vehicle: Klucel (hydroxypropylcellulose) (HPC)) 110 % of control; (dose: 3.8 mg/kg/injection, schedule: Q04DX003 (ip), vehicle: Klucel (hydroxypropylcellulose) (HPC)) 113 % of control; (dose: 5.7 mg/kg/injection, schedule: Q04DX003 (ip), vehicle: Klucel (hydroxypropylcellulose) (HPC)) 113 % of control; under setting [10], 105 % of control; under setting [7], 110 % of control; (dose: 23.0 mg/kg/injection, schedule: Q04DX003 (ip), vehicle: Klucel (hydroxypropylcellulose) (HPC)) 100 % of control. Besides, where the note is “dose: 52.5 mg/kg/injection, schedule: Q04DX003 (ip), vehicle: Klucel (hydroxypropylcellulose) (HPC)”, the T/C was 120 % of control.
For the molecule `CC1=CC(=O)C(CO)=CC1=O`, the T/C runs as follows: (dose: 0.38 mg/kg/injection, schedule: Q01DX009 (ip), vehicle: saline with Tween-80) 105 % of control; (dose: 0.75 mg/kg/injection, schedule: Q01DX009 (ip), vehicle: saline with Tween-80) 108 % of control; (dose: 1.5 mg/kg/injection, schedule: Q01DX009 (ip), vehicle: saline with Tween-80) 110 % of control; (dose: 3.0 mg/kg/injection, schedule: Q01DX009 (ip), vehicle: saline with Tween-80) 115 % of control; (dose: 6.0 mg/kg/injection, schedule: Q01DX009 (ip), vehicle: saline with Tween-80) 107 % of control.
For the molecule `CC1CCC(NC2=NCCO2)C1` (configuration not stated), the T/C runs as follows: (dose: 100.0 mg/kg/injection, schedule: Q01DX001 (ip), vehicle: saline with Tween-80) 87 % of control; (dose: 200.0 mg/kg/injection, schedule: Q01DX001 (ip), vehicle: saline with Tween-80) 91 % of control; (dose: 400.0 mg/kg/injection, schedule: Q01DX001 (ip), vehicle: saline with Tween-80) 95 % of control.
With `O=C(CC(=O)C(F)(F)C(F)(F)C(F)(F)F)c1csc2ccccc12`, the T/C under setting [10] was 91 % of control; the T/C under setting [7] was 95 % of control; the T/C (dose: 25.0 mg/kg/injection, schedule: Q01DX009 (ip), vehicle: Klucel (hydroxypropylcellulose) (HPC)) is 95 % of control; the T/C under setting [2] was 95 % of control; the T/C under setting [8] was 100 % of control; the T/C under setting [3] is 100 % of control. Further, the T/C by setting is: (dose: 100.0 mg/kg/injection, schedule: Q01DX009 (ip), vehicle: Klucel (hydroxypropylcellulose) (HPC)) 115 % of control; under setting [4], 91 % of control; (dose: 100.0 mg/kg/injection, schedule: Q01DX009 (ip), vehicle: saline) 115 % of control; under setting [9], 104 % of control; under setting [6], 104 % of control; (dose: 400.0 mg/kg/injection, schedule: Q04DX003 (ip), vehicle: Klucel (hydroxypropylcellulose) (HPC)) 109 % of control.
